Like-named read-outs stand apart in the source and are kept apart here.
Columns and labels:
[1] = Visual (tube-tapping) assay of gel-forming capability and solubility; type: physicochemical; parameters: key to Gel-forming ability: Y: can form a liquid gel; N: lacks the ability to efficiently form a liquid gel
Procedure: (§1) To evaluate the ability of peptides to form gels in situ, we initially determined this tendency qualitatively based on visual examinations of peptide solutions using a tube-tapping method. In addition, we quantitatively determined the viscosity of select peptide solutions using a viscometer (Rheosense Inc; http://www.rheosense.com/products/viscometers) ([Yan and Pochan, 2010]). In the visual assay, aliquots of peptides were dissolved in an aqueous solution (i.e., de-ionized water, saline, or 5% glucose solution). The peptide that dissolved instantly and stayed as a clear solution without obvious macroscopic change in viscosity at 20 min after mixing was considered soluble. If macroscopic particles of peptides remained in the solution at 20 min after mixing, the peptide was considered insoluble.

[2] = Viscosity of peptide solutions, Rheosense viscometer; type: physicochemical; details: N = 5 per group, result in words
Procedure: as §1
In addition, we quantitatively determined the viscosity of ADE651 and control peptides using the Rheosense viscometer. The peptide solution was loaded onto a Rheosense viscometer chip, and the sample was injected at a constant flow rate through the flow channel with multiple pressure sensors that monitor the pressure drop from the inlet to the outlet. Because the pressure drop is correlated with the shear stress at the boundary wall, the instrument determines the rheological properties based on the standard principles of rheometry ([Yan and Pochan, 2010]).

[3] = Passage of peptide molecules through Centricon filters; type: physicochemical; details: Centricon 30,000 MW cutoff, ADM2 EIA
From the text: To evaluate whether gel-formation reduces the movement of peptide molecules in solution, we used the Centricon® filters (Millipore) to separate samples and the carriers based on their molecular mass. The sample is monomeric peptides, and the carrier is the self-assembled gel. One milligram aliquots of the peptides were first dissolved as 0.1% solution in 5% glucose, 0.1% solution in saline, 5% solution in 5% glucose, 10% solution in 5% glucose, and 20% solution in 5% glucose. Ten minutes later, the 5%, 10%, and 20% solutions were diluted to the 0.1% level. Aliquots of these solutions were sampled and dispensed into separate Centricon columns (30,000 MW cutoff), and the monomeric peptide and gel molecules were separated by centrifugation for 15 min (2000 x g). The level of peptide in the elutes was determined by specific EIAs (Phoenix Pharmaceuticals Inc.).

[4] = Release of ADE651 from gel solution in vivo (single-dose pharmacokinetics); parameters: species or system Sprague-Dawley rats; details: rat
Procedure: Single-dose pharmacokinetics of gel solution was investigated in male Sprague-Dawley rats. Rats received a peptide solution via the subcutaneous route. Blood samples were collected at pre-dose, 8 h, 1, 2, 4, and 8 days via a catheter that has been cannulated to the jugular vein (Charles River), and 0.5–1.0 ml of blood samples were collected at each time point. The animals were individually housed, plasma was obtained by centrifugation, and the peptide level in samples was determined by specific ADM2 EIAs (Catalogue no. EK-010–48, Phoenix Pharmaceuticals Inc.). It has a 0% cross-reactivity to ADM or CGRPs and has a sensitivity of 0.19 ng/ml. The Inter-assay variation was <15%.

[5] = system: CGRP-induced vasodilation; assay: Dermal blood flow and vasodilation in rat hindlimbs, laser Doppler imaging; type: in vivo, Sprague-Dawley rats; details: rat hindlimb, ADE651 8 mg in 8% solution s.c. at 0 h
Procedure: Adult Sprague Dawley male rats (body weight 150–200 g) were randomly divided into treatment groups. Animals were individually housed during the experiment. After acclimation, rats were anesthetized and stabilized under 2.5% isoflurane, and were placed on a heating pad. Testing articles were prepared just before the experiment and individually administered subcutaneously into the hindlimbs. Human β-CGRP (LifeTein LLC, Hillsborough, NJ) was dissolved in a saline solution, and the antagonist solution was prepared in a 5% glucose solution. […] In this experiment, the antagonist gel solution was administered at 0 h as a liquid solution shortly after dissolution to prevent issues associated with the formation of semi-solid gel when the peptide is dissolved at high levels. […] The amount of blood flow was determined by laser Doppler imaging as described earlier ([Van der Schueren et al., 2007]; [Benschop et al., 2014]). The laser Doppler scan series of the hindlimbs began with two baseline scans and was followed by two scans each at select time points. Data are reported as percent change from the average baseline scans.

[6] = system: capsaicin-induced dermal blood flow; details: ref Sinclair et al., 2010; cited from earlier work
From the text: It is known that anti-CGRP gepants could occupy a binding site close to the interface of the N-terminal domains of CLR and RAMP1, and act by allosteric regulation ([Miller et al., 2010]). Although the gepants compounds have low IC50 values in receptor activation assays in vitro, it is well documented that gepants need high concentrations to bloc ...

[7] = administered as a 25% gel depot; ref Oberg and Lamberts, 2016; cited from earlier work
From the text: Our screening of long-acting antagonists has originally focused on lipidated peptides because lipidation is known to increase the half-lives of various peptides by enabling them to be bound by albumin and other serum proteins, therefore reducing elimination by kidneys and degradation by serum proteases ([Drucker et al., 2010]). […] This finding is consistent with earlier studies of benzoylated and lipidated CGRP8-37 analogs which ha ...

[8] = cited from earlier work

CCCCCCCCCCCCCCCC(=O)N[C@@H](CCCCN)C(=O)N[C@H](C(=O)N[C@@H](CCC(N)=O)C(=O)N[C@@H](CCCCN)C(=O)N[C@@H](CC(C)C)C(=O)N[C@@H](CO)C(=O)N[C@@H](C)C(=O)N1CCC[C@H]1C(=O)N[C@H](C(=O)N[C@@H](CC(=O)O)C(=O)N1CCC[C@H]1C(=O)N[C@@H](CO)C(=O)N[C@@H](CO)C(=O)N1CCC[C@H]1C(=O)N[C@@H](Cc1c[nH]cn1)C(=O)N[C@@H](CO)C(=O)N[C@@H](Cc1ccc(O)cc1)C(N)=O)C(C)C)C(C)C [ADE651]
Appearance of solution in saline at 6–20% ([1]; visual): cloudy | Solubility in 5% glucose solution ([1]; visual): soluble from 0.1% to 20% | Solubility in saline ([1]; visual): low solubility | Gel-forming ability ([1]; visual inspection of 11% peptide solutions, tube-tapping, 20 min after mixing): Y | Concentration at which the peptide solution forms a gel (becomes viscous) ([1]; visual, 20 min after dissolution, vial tilted 90° and tapped): 6–20% | Viscosity of 0.5% solution in 5% glucose ([2]; compared with water, saline, 5% glucose, 0.5% and […] ADM): significantly higher than that of all other solutions evaluated | Reduction of peptide level in the elutes from 5%, 10% and 20% solution groups compared to the 0.1% solution group ([3]; 2000 x g 15 min, dissolved in 5% glucose, diluted to 0.1% after 10 min, triplicate samples): more than 98% | Peptide level in the elute from the 0.1% saline group versus 0.1% solution in 5% glucose group ([3]; N = 3 per group, result in words): significantly lower | Tmax ([4]; male, Sprague-Dawley, sc, subcutaneous, 200 µL of 16% solution (32 mg), plasma, ADM2 EIA, three animals, read-out: Time of peak circulating level after administration): 8 h | Sustained presence in the circulation after subcutaneous injection ([4]; subcutaneous gel solution): > 1 week | Circulating level at 8 days after injection ([4]; subcutaneous, 16% solution (32 mg), plasma, ADM2 EIA, versus 0 h, result in words): significantly elevated | CGRP-induced increase in blood flow at the 5 h time point after ADE651 pretreatment ([5]; CGRP 1 mg/100 µL at 4 h, N = 3): 6% | Blood flow before the CGRP treatment (4 h time point) versus control animals ([5]; result in words): significantly lower

O=C(N[C@@H]1CC[C@@H](c2cccc(F)c2F)CN(CC(F)(F)F)C1=O)N1CCC(n2c(=O)[nH]c3ncccc32)CC1 [telcagepant, reference compound]
EC (90) to inhibit the capsaicin-induced increase in dermal blood flow [6]: ~909 nM

Lanreotide
Period over which the gel releases the monomer [7]: a month

adrenomedullin 2 [ADM2]
Resident time after subcutaneous injection ([8]; in vivo, sc): < 1 h

adrenomedullin [ADM, reference compound]
Viscosity of 0.5% and […] solutions in 5% glucose [2]: like that of 5% glucose solution | Resident time after subcutaneous injection ([8]; short half-life, ref Nagata et al., 2022): < 1 h
